Source: US20240269139A1, “COMPOUNDS FOR TARGETED PROTEIN DEGRADATION OF KINASES” (DANA-FARBER CANCER INSTITUTE, INC., priority 2020, published 2024)

Molecular target: protein kinases (human kinome)
Type: cell-based
Conditions: for Kinase hits: kinases significantly downregulated vs DMSO (fold change cutoff −1.25, P-value<0.01), ≤8 h, 0.1-5 μM degrader, 7 cell lines; for Total no. kinase hits: number of degraded kinases per library compound; for kinases the bifunctional compound degrades: as stated for the structure in the embodiments
Excerpt: Although development of targeted protein degraders requires a POI binder, among already-liganded proteins such as kinases, it was hypothesized that different targets would have a different propensity for current approaches to degrader-mediated destruction, which was termed ‘degradability’. […] It was rationalized that the probability of identifying the same kinase as a false positive in multiple treatments is low, therefore this analysis served to also assess the robustness of our data and subsequent interpretations. […] Overall, 62 protein kinases were degraded in more than 10 independent treatments, and remarkably, 9 of these (CDK4, AURKA, FER, WEE1, BLK. LIMK2, CDK6, GAK, LIMK1) were each degraded in at least 40 of the 154 independent treatments, emphasizing their predisposition to induced degradation (FIG. 1G; Appendix I).
Next, the frequency of degradation assessment was corrected for over-representation of molecules in the full dataset by omitting replicate profiling of compounds under different experimental conditions, to remove any bias. […] Unsurprisingly, the top degradable kinases mirror those from the previous analysis (CDK4, AURKA, FER, WEE1, BLK), confirming that in sufficiently large datasets, even with over-representation of certain molecules, frequency of degradation is a good measure of general tractability.

Q: What does the source list for `CC(=O)c1c(C)c2cnc(Nc3ccc(N4CCN(CCCCNC(=O)CNc5cccc6c5C(=O)N(C5CCC(=O)NC5=O)C6=O)CC4)cn3)nc2n(C2CCCC2)c1=O` (stereo not shown) [BSJ-01-147]?
A: Kinase hits: CDK4, CDK6, WEE1; Total no. kinase hits: 3

Q: What does the source list for `CC(=O)c1c(C)c2cnc(Nc3ccc(N4CCN(CCOCCOCCOCCNC(=O)COc5cccc6c5C(=O)N(C5CCC(=O)NC5=O)C6=O)CC4)cn3)nc2n(C2CCCC2)c1=O` (stereo not shown) [BSJ-03-123]?
A: Kinase hits: BCKDK, CDK4, CDK6, COQ8A, PDK1, PDK2, PDK3, WEE1; Total no. kinase hits: 8

Q: With `CC(=O)c1c(C)c2cnc(Nc3ccc(N4CCN(CCCCNC(=O)COc5cccc6c5C(=O)N(C5CCC(=O)NC5=O)C6=O)CC4)cn3)nc2n(C2CCCC2)c1=O` (stereo not shown) [BSJ-03-204] as the compound, how does the Kinase hits read?
A: The Kinase hits was “CDK4, CDK6, PDK1, WEE1”.

Q: What about the “Total no. kinase hits” value of the same compound?
A: Its value is 4.

Q: How did the Kinase hits turn out when `CN(C)C(=O)c1cc2cnc(Nc3ccc(N4CCN(CCCCNC(=O)COc5cccc6c5C(=O)N(C5CCC(=O)NC5=O)C6=O)CC4)cn3)nc2n1C1CCCC1` (stereo not shown) [BSJ-04-132] was run?
A: Its Kinase hits is “BCKDK, CDK4, CDK6, COQ8A, PDK1, PDK2, PDK3,”.

Q: What about the “Total no. kinase hits” value of the same compound?
A: The value was 3.

Q: Which “kinases the bifunctional compound degrades” value does the source give for `O=C(COc1cccc2c1C(=O)N(C1CCC(=O)NC1=O)C2=O)NCCCCCCCN1CCc2cc(Nc3ncc(C4CC4)c(NCCCNC(=O)C4CCC4)n3)ccc2C1` (stereo not shown) [BSJ-04-178] here?
A: Its value is “AAK1, AURKA, AURKB. BMP2K, CDK10, CDK9, GAK, MARK2, MARK3, MARK4, SIK2, STK17A, STK17B, SNRK, ULK1, and WEE1”.

Q: And the Kinase hits?
A: Its Kinase hits is “AAK1, AURKA, AURKB, BMP2K, CDK10, CDK9, GAK, MARK2, MARK3, MARK4, SIK2, STKI7A, STK17B, SNRK, ULK1, WEE1”.

Q: What about the “Total no. kinase hits” value of the same compound?
A: The value was 16.

Q: Which Kinase hits does the source give for `Cc1ncsc1-c1ccc([C@H](C)NC(=O)[C@@H]2C[C@@H](O)CN2C(=O)[C@@H](NC(=O)CCCCCN2CCc3cc(Nc4ncc(C5CC5)c(NCCCNC(=O)C5CCC5)n4)ccc3C2)C(C)(C)C)cc1` [BSJ-05-026] here?
A: The Kinase hits was “AAK1, GAK, MARK2, MARK3, MARK4, RPS6KB1, SIK2, SIK3, SNRK, STKI7A, STKI7B, ULK1, WEE1”.

Q: What about the “Total no. kinase hits” value of the same compound?
A: Its value is 13.

Q: How did the “Total no. kinase hits” value turn out when `Cc1ccc(NC(=O)c2cccc(C(F)(F)F)c2)cc1N1Cc2cnc(Nc3ccc(N4CCN(CCCCCC(=O)N[C@H](C(=O)N5C[C@H](O)C[C@H]5C(=O)N[C@@H](C)c5ccc(-c6scnc6C)cc5)C(C)(C)C)CC4)nc3)nc2N(C)C1=O` [DB1114, (2S,4R)-1-((S)-3,3-dimethyl-2-(6-(4-(5-((8-methyl-6-(2-methyl-5-(3-(trifluoromethyl)benzamido)phenyl)-7-oxo-5,6,7,8-tetrahydropyrimido[4,5-d]pyrimidin-2-yl)amino)pyridin-2-yl)piperazin-1-yl)hexanamido)butanoyl)-4-hydroxy-N—((S)-1-(4-(4-methylthiazol-5-yl)phenyl)ethyl)pyrrolidine-2-carboxamide] was run?
A: Its value is 31.

Q: For `Cc1ccc(NC(=O)c2cccc(C(C)(C)C#N)c2)cc1Nc1ccc2ncn(CCOCCOCCC(=O)N[C@H](C(=O)N3C[C@H](O)C[C@H]3C(=O)NCc3ccc(-c4scnc4C)cc3)C(C)(C)C)c(=O)c2c1` [DD-02-198], which “kinases the bifunctional compound degrades” value is on record?
A: The value was “MAPK14”.

Q: What about the Kinase hits of the same compound?
A: Its Kinase hits is “MAPK14”.

Q: What about the “Total no. kinase hits” value of the same compound?
A: The value was 1.

Q: Which results are given for `CC(C)(C)c1nc(-c2cccc(NS(=O)(=O)c3c(F)cccc3F)c2F)c(-c2ccnc(NCCOCCNC(=O)CCOCCOCCNc3cccc4c3CN(C3CCC(=O)NC3=O)C4=O)n2)s1` (stereo not shown) [DD-03-107]?
A: kinases the bifunctional compound degrades: BCKDK, COQ8A, LIMK1, PDK1, PDK2, and PDK3; Kinase hits: BCKDK, COQ8A, LIMK1, PDK1, PDK2, PDK3; Total no. kinase hits: 6

Q: Which “kinases the bifunctional compound degrades” value does the source give for `Nc1ncnc2c1c(-c1ccc(Oc3ccccc3)cc1)nn2[C@@H]1CCCN(C(=O)CCCN2CCN(CCNC(=O)CCOCCOCCNc3cccc4c3C(=O)N(C3CCC(=O)NC3=O)C4=O)CC2)C1` (stereo partly shown) [DD-03-119] here?
A: The value was “ABL2, BLK, CSK, FYN, LCK, SRC, and TEC”.

Q: What about the Kinase hits of the same compound?
A: Its Kinase hits is “ABL2, BLK, CSK, FYN, LCK, SRC, TEC”.

Q: And the “Total no. kinase hits” value?
A: Its value is 3.

Q: `Cc1c(NC(=O)c2ccc(C(C)(C)C)cc2)cccc1-c1cn(C)c(=O)c(Nc2ccc(C(=O)N3CCN(CCCCCCNC(=O)CNc4cccc5c4C(=O)N(C4CCC(=O)NC4=O)C5=O)CC3)cc2)n1` (stereo not shown) [DD-03-171] was tested. Which Kinase hits did it give?
A: The Kinase hits was “BTK”.

Q: What about the “Total no. kinase hits” value of the same compound?
A: The value was 1.
